Measured values reported in patent US20240208956A1, “1,3,4-OXADIAZOLE THIOCARBONYL COMPOUNDS AS HISTONE DEACETYLASE 6 INHIBITOR, AND PHARMACEUTICAL COMPOSITION COMPRISING THE SAME” (CHONG KUN DANG PHARMACEUTICAL CORP., priority 2021, published 2024).
pIC50: −log10 of the molar value.

What was measured:
HDAC1 = HDAC1 (Homo sapiens (Human), UniProt Q13547); assay: HDAC enzyme activity inhibition (in vitro), HDAC1 Fluorimetric Drug Discovery Assay Kit; assay type: biochemical; conditions: samples at 100, 1000 and 10000 nM; 37° C. 60 minutes; fluorescence Ex 390 nm, Em 460 nm
Sequence of HDAC1 (Q13547 whole entry): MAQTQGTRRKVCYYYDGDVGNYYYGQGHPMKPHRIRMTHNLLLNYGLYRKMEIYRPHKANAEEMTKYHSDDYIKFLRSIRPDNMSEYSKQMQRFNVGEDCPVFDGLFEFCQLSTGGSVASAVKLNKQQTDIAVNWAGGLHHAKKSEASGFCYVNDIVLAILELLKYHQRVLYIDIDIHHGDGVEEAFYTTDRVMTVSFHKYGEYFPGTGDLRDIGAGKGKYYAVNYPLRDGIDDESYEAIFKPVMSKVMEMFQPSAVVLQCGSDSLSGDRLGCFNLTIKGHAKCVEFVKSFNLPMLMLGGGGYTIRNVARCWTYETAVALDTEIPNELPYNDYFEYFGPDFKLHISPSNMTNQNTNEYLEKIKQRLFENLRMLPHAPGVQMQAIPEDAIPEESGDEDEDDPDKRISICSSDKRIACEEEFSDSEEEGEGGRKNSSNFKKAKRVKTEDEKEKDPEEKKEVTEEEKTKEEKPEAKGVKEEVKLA
Description: Experimental Example 1. Confirmation of HDAC Enzyme Activity Inhibition (In Vitro)
(§1) An HDAC enzyme inhibitory capacity of test material was measured by using HDAC1 Fluorimetric Drug Discovery Assay Kit (Enzolifesciences: BML-AK511) and HDAC6 human recombinant (Calbiochem: 382180). For a HDAC1 assay, samples were treated at a concentration of 100 nM, 1000 nM and 10000 nM. For an HDAC6 assay, samples were treated at a concentration of 0.1 nM, 1 nM, 10 nM, 100 nM and 1000 nM. After the sample treatment, a reaction was continued at 37° C. for 60 minutes, treated with a developer, and subjected to reaction at 37° C. for 30 minutes, after which fluorescence intensity (Ex 390 nm, Em 460 nm) was measured by using FlexStation3 (Molecular device). For final result values, each […] value was calculated with GraphPad Prism 4.0 program.

HDAC6 human recombinant = HDAC6 human recombinant (Homo sapiens (Human), UniProt Q9UBN7); assay: HDAC enzyme activity inhibition (in vitro), HDAC6 fluorimetric assay; assay type: biochemical; conditions: samples at 0.1-1000 nM; 37° C. 60 minutes; fluorescence Ex 390 nm, Em 460 nm
Sequence of HDAC6 human recombinant (Q9UBN7 whole entry): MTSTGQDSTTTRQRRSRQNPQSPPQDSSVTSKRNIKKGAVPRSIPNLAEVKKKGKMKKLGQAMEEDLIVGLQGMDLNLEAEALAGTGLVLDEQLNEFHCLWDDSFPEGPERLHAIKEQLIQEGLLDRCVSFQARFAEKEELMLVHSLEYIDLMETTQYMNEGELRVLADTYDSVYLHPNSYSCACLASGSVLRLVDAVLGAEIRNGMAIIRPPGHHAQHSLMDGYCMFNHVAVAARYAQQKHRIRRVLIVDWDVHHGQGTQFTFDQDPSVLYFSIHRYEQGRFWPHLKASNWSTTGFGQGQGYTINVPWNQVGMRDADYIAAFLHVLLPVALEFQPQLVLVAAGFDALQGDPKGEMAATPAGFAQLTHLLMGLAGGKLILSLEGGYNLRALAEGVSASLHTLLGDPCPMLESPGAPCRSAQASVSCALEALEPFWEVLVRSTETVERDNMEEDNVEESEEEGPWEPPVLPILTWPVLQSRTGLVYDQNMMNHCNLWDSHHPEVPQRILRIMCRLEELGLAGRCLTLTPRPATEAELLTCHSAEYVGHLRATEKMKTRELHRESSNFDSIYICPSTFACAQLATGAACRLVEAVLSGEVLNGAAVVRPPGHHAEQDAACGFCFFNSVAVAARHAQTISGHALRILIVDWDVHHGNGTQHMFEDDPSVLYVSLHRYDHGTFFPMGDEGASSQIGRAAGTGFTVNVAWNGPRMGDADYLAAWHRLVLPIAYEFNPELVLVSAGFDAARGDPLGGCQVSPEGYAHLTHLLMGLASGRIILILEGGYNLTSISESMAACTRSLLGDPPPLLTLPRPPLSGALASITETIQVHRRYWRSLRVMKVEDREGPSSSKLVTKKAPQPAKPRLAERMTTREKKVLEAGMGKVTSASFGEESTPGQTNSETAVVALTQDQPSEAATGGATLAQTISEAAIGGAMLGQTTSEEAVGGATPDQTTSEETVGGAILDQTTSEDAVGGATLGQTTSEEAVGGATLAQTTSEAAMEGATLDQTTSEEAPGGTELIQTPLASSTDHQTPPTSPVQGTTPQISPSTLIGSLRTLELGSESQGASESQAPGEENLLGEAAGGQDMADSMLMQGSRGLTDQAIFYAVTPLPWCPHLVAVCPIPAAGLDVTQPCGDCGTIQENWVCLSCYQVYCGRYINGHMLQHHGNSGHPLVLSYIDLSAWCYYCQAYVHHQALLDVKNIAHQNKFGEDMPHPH
Description: Confirmation of HDAC Enzyme Activity Inhibition (In Vitro)
as §1

SMILES | pIC50 (HDAC1) | pIC50 (HDAC6 human recombinant)
Fc1cc(-c2nnc(C(F)F)o2)ccc1CN(C(=S)N1CCOCC1)c1ccccc1 [Compound 1, N-(4-(5-(difluoromethyl)-1,3,4-oxadiazol-2-yl)-2-fluorobenzyl)-N-phenylmorpholin-4-carbothioamide] | < 5.00 | –
FC(F)c1nnc(-c2ccc(CN(C(=S)N3CCOCC3)c3ccccc3)nc2)o1 [Compound 2, N-((5-(5-(difluoromethyl)-1,3,4-oxadiazol-2-yl)pyridin-2-yl)methyl)-N-phenylmorpholin-4-carbothioamide] | < 5.00 | 7.18
FC(F)c1nnc(-c2ccc(CN(C(=S)N3CCOCC3)c3ccccc3)cc2)o1 [Compound 3, N-(4-(5-(difluoromethyl)-1,3,4-oxadiazol-2-yl)benzyl)-N-phenylmorpholin-4-carbothioamide] | < 5.00 | 7.43
CN1CCN(C(=S)N(Cc2ccc(-c3nnc(C(F)F)o3)cc2)c2ccccc2)CC1 [Compound 4, N-(4-(5-(difluoromethyl)-1,3,4-oxadiazol-2-yl)benzyl)-4-methyl-N-phenylpiperazin-1-carbothioamide] | < 5.00 | 7.43
FC(F)c1nnc(-c2ccc(CN(C(=S)N3CCN(C4COC4)CC3)c3ccccc3)cc2)o1 [Compound 5, N-(4-(5-(difluoromethyl)-1,3,4-oxadiazol-2-yl)benzyl)-4-(oxetan-3-yl)-N-phenylpiperazin-1-carbothioamide] | < 5.00 | 7.43
O=S1(=O)CCN(C(=S)N(Cc2ccc(-c3nnc(C(F)F)o3)cn2)c2ccccc2)CC1 [Compound 6, N-((5-(5-(difluoromethyl)-1,3,4-oxadiazol-2-yl)pyridin-2-yl)methyl)-N-phenylthiomorpholin-4-carbothioamide 1,1-dioxide] | < 5.00 | 7.51
CN1CCN(C(=S)N(Cc2ccc(-c3nnc(C(F)F)o3)cc2F)c2ccccc2)CC1 [Compound 7, N-(4-(5-(difluoromethyl)-1,3,4-oxadiazol-2-yl)-2-fluorobenzyl)-4-methyl-N-phenylpiperazin-1-carbothioamide] | < 5.00 | –
CN1CCC2(CC1)CC(C(=S)N(Cc1ccc(-c3nnc(C(F)F)o3)cc1F)c1ccccc1)C2 [Compound 8, N-(4-(5-(difluoromethyl)-1,3,4-oxadiazol-2-yl)-2-fluorobenzyl)-7-methyl-N-phenyl-7-azaspiro[3.5]nonan-2-carbothioamide] | < 5.00 | 7.12
Fc1cc(-c2nnc(C(F)F)o2)ccc1CN(C(=S)c1ccncc1)c1ccccc1 [Compound 9, N-(4-(5-(difluoromethyl)-1,3,4-oxadiazol-2-yl)-2-fluorobenzyl)-N-phenylpyridin-4-carbothioamide] | < 5.00 | 6.86
Fc1cc(-c2nnc(C(F)F)o2)ccc1CN(C(=S)N1CC2(C1)CN(C1COC1)C2)c1ccccc1 [Compound 11, N-(4-(5-(difluoromethyl)-1,3,4-oxadiazol-2-yl)-2-fluorobenzyl)-6-(oxetan-3-yl)-N-phenyl-2,6-diazaspiro[3.3]heptan-2-carbothioamide] | < 5.00 | 7.30
CN1CC2(C1)CN(C(=S)N(Cc1ccc(-c3nnc(C(F)F)o3)cc1)c1cccc(F)c1)C2 [Compound 14, N-(4-(5-(difluoromethyl)-1,3,4-oxadiazol-2-yl)benzyl)-N-(3-fluorophenyl)-6-methyl-2,6-diazaspiro[3.3]heptan-2-carbothioamide] | < 5.00 | 7.41
Fc1cccc(N(Cc2ccc(-c3nnc(C(F)F)o3)cc2)C(=S)N2CC3(C2)CN(C2COC2)C3)c1 [Compound 15, N-(4-(5-(difluoromethyl)-1,3,4-oxadiazol-2-yl)benzyl)-N-(3-fluorophenyl)-6-(oxetan-3-yl)-2,6-diazaspiro[3.3]heptan-2-carbothioamide] | < 5.00 | 7.27
CC(C)N1CC2(CN(C(=S)N(Cc3ccc(-c4nnc(C(F)F)o4)cc3)c3cccc(F)c3)C2)C1 [Compound 16, N-(4-(5-(difluoromethyl)-1,3,4-oxadiazol-2-yl)benzyl)-N-(3-fluorophenyl)-6-isopropyl-2,6-diazaspiro[3.3]heptan-2-carbothioamide] | < 5.00 | 7.20
Fc1ccc(N(Cc2ccc(-c3nnc(C(F)F)o3)cc2F)C(=S)N2CC3(C2)CN(C2COC2)C3)cc1 [Compound 19, N-(4-(5-(difluoromethyl)-1,3,4-oxadiazol-2-yl)-2-fluorobenzyl)-N-(4-fluorophenyl)-6-(oxetan-3-yl)-2,6-diazaspiro[3.3]heptan-2-carbothioamide] | < 5.00 | 7.27
CN1CC2(C1)CN(C(=S)N(Cc1ccc(-c3nnc(C(F)F)o3)cc1)c1ccc(F)cc1)C2 [Compound 20, N-(4-(5-(difluoromethyl)-1,3,4-oxadiazol-2-yl)benzyl)-N-(4-fluorophenyl)-6-methyl-2,6-diazaspiro[3.3]heptan-2-carbothioamide] | < 5.00 | 7.22
CC(C)N1CC2(CN(C(=S)N(Cc3ccc(-c4nnc(C(F)F)o4)cc3)c3ccc(F)cc3)C2)C1 [Compound 21, N-(4-(5-(difluoromethyl)-1,3,4-oxadiazol-2-yl)benzyl)-N-(4-fluorophenyl)-6-isopropyl-2,6-diazaspiro[3.3]heptan-2-carbothioamide] | < 5.00 | 7.15
Fc1ccc(N(Cc2ccc(-c3nnc(C(F)F)o3)cc2)C(=S)N2CC3(C2)CN(C2COC2)C3)cc1 [Compound 22, N-(4-(5-(difluoromethyl)-1,3,4-oxadiazol-2-yl)benzyl)-N-(4-fluorophenyl)-6-(oxetan-3-yl)-2,6-diazaspiro[3.3]heptan-2-carbothioamide] | < 5.00 | 7.08
CN1C[C@@H]2C[C@H]1CN2C(=S)N(Cc1ccc(-c2nnc(C(F)F)o2)cc1F)c1ccc(F)c(F)c1 [Compound 42, (1S,4S)—N-(4-(5-(difluoromethyl)-1,3,4-oxadiazol-2-yl)-2-fluorobenzyl)-N-(3,4-difluorophenyl)-5-methyl-2,5-diazabicyclo[2.2.1]heptan-2-carbothioamide] | < 5.00 | –

Further lines, results first:

pIC50 (HDAC1) | pIC50 (HDAC6 human recombinant) | SMILES
< 5.00 | 7.35 | CN1CC2(C1)CN(C(=S)N(Cc1ccc(-c3nnc(C(F)F)o3)cc1F)c1ccccc1)C2 [Compound 10, N-(4-(5-(difluoromethyl)-1,3,4-oxadiazol-2-yl)-2-fluorobenzyl)-6-methyl-N-phenyl-2,6-diazaspiro[3.3]heptan-2-carbothioamide]
< 5.00 | 6.87 | CN1CC2(C1)CN(C(=S)N(Cc1ccc(-c3nnc(C(F)F)o3)cc1F)c1ccc(F)cc1F)C2 [Compound 12, N-(4-(5-(difluoromethyl)-1,3,4-oxadiazol-2-yl)-2-fluorobenzyl)-N-(2,4-difluorophenyl)-6-methyl-2,6-diazaspiro[3.3]heptan-2-carbothioamide]
< 5.00 | 7.12 | CN1CC2(C1)CN(C(=S)N(Cc1ccc(-c3nnc(C(F)F)o3)cc1F)c1ccc(F)c(F)c1)C2 [Compound 13, N-(4-(5-(difluoromethyl)-1,3,4-oxadiazol-2-yl)-2-fluorobenzyl)-N-(3,4-difluorophenyl)-6-methyl-2,6-diazaspiro[3.3]heptan-2-carbothioamide]
< 5.00 | 7.39 | CN1CC2(C1)CN(C(=S)N(Cc1ccc(-c3nnc(C(F)F)o3)cc1F)c1ccc(F)cc1)C2 [Compound 17, N-(4-(5-(difluoromethyl)-1,3,4-oxadiazol-2-yl)-2-fluorobenzyl)-N-(4-fluorophenyl)-6-methyl-2,6-diazaspiro[3.3]heptan-2-carbothioamide]
< 5.00 | 7.21 | CC(C)N1CC2(CN(C(=S)N(Cc3ccc(-c4nnc(C(F)F)o4)cc3F)c3ccc(F)cc3)C2)C1 [Compound 18, N-(4-(5-(difluoromethyl)-1,3,4-oxadiazol-2-yl)-2-fluorobenzyl)-N-(4-fluorophenyl)-6-isopropyl-2,6-diazaspiro[3.3]heptan-2-carbothioamide]
< 5.00 | 7.21 | CN1CC2(C1)CN(C(=S)N(Cc1ccc(-c3nnc(C(F)F)o3)cc1F)c1ccc(Cl)c(Cl)c1)C2 [Compound 23, N-(3,4-dichlorophenyl)-N-(4-(5-(difluoromethyl)-1,3,4-oxadiazol-2-yl)-2-fluorobenzyl)-6-methyl-2,6-diazaspiro[3.3]heptan-2-carbothioamide]
< 5.00 | 7.08 | Fc1cc(-c2nnc(C(F)F)o2)ccc1CN(C(=S)N1CC2(C1)CN(C1COC1)C2)c1ccc(Cl)c(Cl)c1 [Compound 24, N-(3,4-dichlorophenyl)-N-(4-(5-(difluoromethyl)-1,3,4-oxadiazol-2-yl)-2-fluorobenzyl)-6-(oxetan-3-yl)-2,6-diazaspiro[3.3]heptan-2-carbothioamide]
< 5.00 | 7.34 | CN1CC2(C1)CN(C(=S)N(Cc1ccc(-c3nnc(C(F)F)o3)cc1F)c1ccc(F)c(Cl)c1)C2 [Compound 25, N-(3-chloro-4-fluorophenyl)-N-(4-(5-(difluoromethyl)-1,3,4-oxadiazol-2-yl)-2-fluorobenzyl)-6-methyl-2,6-diazaspiro[3.3]heptan-2-carbothioamide]
< 5.00 | – | Fc1ccc(N(Cc2ccc(-c3nnc(C(F)F)o3)cc2F)C(=S)N2CC3(COC3)C2)cc1F [Compound 35, N-(4-(5-(difluoromethyl)-1,3,4-oxadiazol-2-yl)-2-fluorobenzyl)-N-(3,4-difluorophenyl)-2-oxa-6-azaspiro[3.3]heptan-6-carbothioamide]
